Molecular target: EZH2 (Homo sapiens (Human), UniProt Q15910)
Experiment: PRC2 enzyme assay on peptide substrates
Type: biochemical
Settings: PRC2 enzyme assays on peptide substrates; 4 nM enzyme, 30 min preincubation at 25° C.; read-out: EZH2 IC50
Source text: General Materials. S-adenosylmethionine (SAM), S-adenosylhomocyteine (SAH), bicine, KCl, Tween20, dimethylsulfoxide (DMSO) and bovine skin gelatin (BSG) were purchased from Sigma-Aldrich at the highest level of purity possible. Dithiothreitol (DTT) was purchased from EMD. ^3H-SAM was purchased from American Radiolabeled Chemicals with a specific activity of 80 Ci/mmol. 384-well streptavidin Flashplates were purchased from PerkinElmer.
Substrates. […] The sequences are listed below.
Recombinant PRC2 Enzymes. Human PRC2 enzymes were purified as 4-component enzyme complexes co-expressed in Spodoptera frugiperda (sf9) cells using a baculovirus expression system. The subunits expressed were wild-type EZH2 (NM_004456) or EZH2 Y641F, N, H, S or C mutants generated from the wild-type EZH2 construct, EED (NM_003797), Suz12 (NM_015355) and RbAp48 (NM_005610). The EED subunit contained an N-terminal FLAG tag that was used to purify the entire 4-component complex from sf9 cell lysates.
General Procedure for PRC2 Enzyme Assays on Peptide Substrates. The assays were all performed in a buffer consisting of 20 mM bicine (pH=7.6), 0.5 mM DTT, 0.005% BSG and 0.002% Tween20, prepared on the day of use. […] DMSO (1 μL) was added to columns 11, 12, 23, 24, rows A-H for the maximum signal control, and SAH, a known product and inhibitor of PRC2 (1 μL) was added to columns 11, 12, 23, 24, rows I-P for the minimum signal control. A cocktail (40 μL) containing the wild-type PRC2 enzyme and H3K27me0 peptide or any of the Y641 mutant enzymes and H3K27me2 peptide was added by Multidrop Combi (Thermo). The compounds were allowed to incubate with PRC2 for 30 min at 25° C., then a cocktail (10 μL) containing a mixture of non-radioactive and ^3H-SAM was added to initiate the reaction (final volume=51 μL). […] The assays were stopped by the addition of non-radioactive SAM (10 μL) to a final concentration of 600 μM, which dilutes the ^3H-SAM to a level where its incorporation into the peptide substrate is no longer detectable. 50 μL of the reaction in the 384-well polypropylene plate was then transferred to a 384-well Flashplate and the biotinylated peptides were allowed to bind to the streptavidin surface for at least 1 h before being washed three times with 0.1% Tween20 in a Biotek ELx405 plate washer. The plates were then read in a PerkinElmer TopCount platereader to measure the quantity of ^3H-labeled peptide bound to the Flashplate surface, measured as disintegrations per minute (dpm) or alternatively, referred to as counts per minute (cpm).
Where dpm=disintegrations per minute, cmpd=signal in assay well, and min and max are the respective minimum and maximum signal controls.
Where top and bottom are the normally allowed to float, but may be fixed at 100 or 0 respectively in a 3-parameter fit. The Hill Coefficient normally allowed to float but may also be fixed at 1 in a 3-parameter fit. Y is the % inhibition and X is the compound concentration.

Chain of EZH2 (Q15910 other isoform, or with tags, fused parts or gaps): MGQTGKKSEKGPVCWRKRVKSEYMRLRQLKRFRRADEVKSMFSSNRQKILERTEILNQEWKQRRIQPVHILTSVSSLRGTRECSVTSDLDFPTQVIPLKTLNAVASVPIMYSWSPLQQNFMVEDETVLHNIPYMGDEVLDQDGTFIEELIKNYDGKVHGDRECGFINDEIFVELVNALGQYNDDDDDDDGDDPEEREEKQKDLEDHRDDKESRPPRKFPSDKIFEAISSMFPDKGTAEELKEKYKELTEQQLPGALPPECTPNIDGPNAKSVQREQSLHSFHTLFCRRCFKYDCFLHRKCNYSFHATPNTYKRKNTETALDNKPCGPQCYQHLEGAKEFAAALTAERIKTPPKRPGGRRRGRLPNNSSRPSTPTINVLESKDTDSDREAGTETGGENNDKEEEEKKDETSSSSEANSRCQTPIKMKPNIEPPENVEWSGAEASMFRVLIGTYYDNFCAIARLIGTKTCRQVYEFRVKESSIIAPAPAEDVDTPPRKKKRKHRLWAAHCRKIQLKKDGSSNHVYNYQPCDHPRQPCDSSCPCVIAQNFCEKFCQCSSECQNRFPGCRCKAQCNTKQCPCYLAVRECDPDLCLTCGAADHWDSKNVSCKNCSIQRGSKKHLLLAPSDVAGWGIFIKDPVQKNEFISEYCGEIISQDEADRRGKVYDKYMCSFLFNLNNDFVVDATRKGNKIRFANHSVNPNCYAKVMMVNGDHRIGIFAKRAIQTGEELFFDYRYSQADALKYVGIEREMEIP
Chain of EZH2 (O75530 whole entry partner): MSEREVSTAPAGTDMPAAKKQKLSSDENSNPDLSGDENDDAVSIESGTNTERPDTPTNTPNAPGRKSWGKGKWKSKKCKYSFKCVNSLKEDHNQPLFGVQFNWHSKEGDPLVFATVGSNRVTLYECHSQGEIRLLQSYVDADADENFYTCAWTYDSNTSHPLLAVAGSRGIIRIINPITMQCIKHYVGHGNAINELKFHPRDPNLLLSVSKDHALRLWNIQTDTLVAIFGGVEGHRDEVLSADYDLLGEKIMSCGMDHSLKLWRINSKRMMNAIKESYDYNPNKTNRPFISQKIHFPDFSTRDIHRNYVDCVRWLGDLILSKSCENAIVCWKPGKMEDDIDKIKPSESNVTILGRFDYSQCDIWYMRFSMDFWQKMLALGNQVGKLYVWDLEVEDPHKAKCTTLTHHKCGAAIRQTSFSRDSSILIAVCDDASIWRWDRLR
Chain of EZH2 (Q15022 whole entry partner): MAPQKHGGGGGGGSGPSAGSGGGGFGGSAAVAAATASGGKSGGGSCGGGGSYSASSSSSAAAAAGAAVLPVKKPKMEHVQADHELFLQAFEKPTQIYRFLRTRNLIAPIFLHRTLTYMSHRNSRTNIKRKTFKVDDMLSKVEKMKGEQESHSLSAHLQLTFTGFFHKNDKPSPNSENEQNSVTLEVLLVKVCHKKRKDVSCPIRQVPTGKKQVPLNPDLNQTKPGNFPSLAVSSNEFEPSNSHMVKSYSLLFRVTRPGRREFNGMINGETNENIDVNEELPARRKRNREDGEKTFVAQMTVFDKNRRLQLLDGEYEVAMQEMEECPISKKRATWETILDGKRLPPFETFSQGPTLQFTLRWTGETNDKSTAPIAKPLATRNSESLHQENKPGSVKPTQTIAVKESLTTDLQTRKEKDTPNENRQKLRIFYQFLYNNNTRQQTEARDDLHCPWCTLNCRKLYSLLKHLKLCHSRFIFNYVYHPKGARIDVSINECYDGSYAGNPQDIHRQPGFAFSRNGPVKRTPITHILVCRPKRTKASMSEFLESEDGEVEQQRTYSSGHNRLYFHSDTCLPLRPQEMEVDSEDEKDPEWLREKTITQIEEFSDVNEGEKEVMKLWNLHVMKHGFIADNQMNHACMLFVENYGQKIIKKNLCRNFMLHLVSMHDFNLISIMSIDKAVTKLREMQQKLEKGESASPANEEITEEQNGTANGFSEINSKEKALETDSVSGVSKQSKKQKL
Chain of EZH2 (Q09028 whole entry partner): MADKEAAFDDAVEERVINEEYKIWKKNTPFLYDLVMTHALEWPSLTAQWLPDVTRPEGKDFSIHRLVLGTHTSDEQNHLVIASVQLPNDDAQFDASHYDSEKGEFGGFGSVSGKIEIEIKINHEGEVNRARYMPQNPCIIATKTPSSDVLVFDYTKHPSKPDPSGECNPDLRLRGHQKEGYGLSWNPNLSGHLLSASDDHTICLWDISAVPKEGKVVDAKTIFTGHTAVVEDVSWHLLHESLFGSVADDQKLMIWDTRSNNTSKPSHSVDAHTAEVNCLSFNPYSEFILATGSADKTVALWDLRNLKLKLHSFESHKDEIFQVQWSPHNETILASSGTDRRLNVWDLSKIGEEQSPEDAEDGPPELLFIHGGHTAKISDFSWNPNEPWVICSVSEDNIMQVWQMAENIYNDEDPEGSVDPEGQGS

Compound | IC50 [nM]
CC(=O)c1cc(C(=O)NCc2c(C)cc(C)[nH]c2=O)c2cnn(C(C)C)c2n1 [Compound B-17, 6-acetyl-N-((4,6-dimethyl-2-oxo-1,2-dihydropyridin-3-yl)methyl)-1-isopropyl-1H-pyrazolo[3,4-b]pyridine-4-carboxamide] | 1000 to 3000
CNC(=O)c1cc(C(=O)NCc2c(C)cc(C)[nH]c2=O)c2cnn(C(C)C)c2n1 [Compound B-18, N4-((4,6-dimethyl-2-oxo-1,2-dihydropyridin-3-yl)methyl)-1-isopropyl-N6-methyl-1H-pyrazolo[3,4-b]pyridine-4,6-dicarboxamide] | 1000 to 3000
Cc1cc(C)c(CNC(=O)c2cc(C3=CCN(C(=O)C4CCNCC4)CC3)nc3c2cnn3C(C)C)c(=O)[nH]1 [Compound B-20, N-((4,6-dimethyl-2-oxo-1,2-dihydropyridin-3-yl)methyl)-1-isopropyl-6-(1-(piperidine-4-carbonyl)-1,2,3,6-tetrahydropyridin-4-yl)-1H-pyrazolo[3,4-b]pyridine-4-carboxamide] | < 300
COCc1cc(C)[nH]c(=O)c1CNC(=O)c1cc(C2=CC(C)(C)NC(C)(C)C2)nc2c1cnn2C(C)C [Compound B-21, 1-isopropyl-N-((4-(methoxymethyl)-6-methyl-2-oxo-1,2-dihydropyridin-3-yl)methyl)-6-(2,2,6,6-tetramethyl-1,2,3,6-tetrahydropyridin-4-yl)-1H-pyrazolo[3,4-b]pyridine-4-carboxamide] | 300 to 1000
Cc1cc(C)c(CNC(=O)c2cc(C=O)nc3c2cnn3C(C)C)c(=O)[nH]1 [Compound B-22, N-((4,6-dimethyl-2-oxo-1,2-dihydropyridin-3-yl)methyl)-6-formyl-1-isopropyl-1H-pyrazolo[3,4-b]pyridine-4-carboxamide] | < 300
Cc1cc(C)c(CNC(=O)c2cc(C3CCNCC3)nc3c2cnn3C(C)C)c(=O)[nH]1 [Compound B-24, N-((4,6-dimethyl-2-oxo-1,2-dihydropyridin-3-yl)methyl)-1-isopropyl-6-(piperidin-4-yl)-1H-pyrazolo[3,4-b]pyridine-4-carboxamide] | 300 to 1000
CCc1cc(C)[nH]c(=O)c1CNC(=O)c1cc(C2=CC(C)(C)NC(C)(C)C2)nc2c1cnn2C(C)C [Compound B-25, N-((4-ethyl-6-methyl-2-oxo-1,2-dihydropyridin-3-yl)methyl)-1-isopropyl-6-(2,2,6,6-tetramethyl-1,2,3,6-tetrahydropyridin-4-yl)-1H-pyrazolo[3,4-b]pyridine-4-carboxamide] | < 300
CCc1nn(C(C)C)c2nc(C3=CC(C)(C)NC(C)(C)C3)cc(C(=O)NCc3c(C)cc(C)[nH]c3=O)c12 [Compound B-26, N-((4,6-dimethyl-2-oxo-1,2-dihydropyridin-3-yl)methyl)-3-ethyl-1-isopropyl-6-(2,2,6,6-tetramethyl-1,2,3,6-tetrahydropyridin-4-yl)-1H-pyrazolo[3,4-b]pyridine-4-carboxamide] | 300 to 1000
Cc1cc(C)c(CNC(=O)c2cc(C3CCN(S(C)(=O)=O)CC3)nc3c2cnn3C(C)C)c(=O)[nH]1 [Compound B-27, N-((4,6-dimethyl-2-oxo-1,2-dihydropyridin-3-yl)methyl)-1-isopropyl-6-(1-(methylsulfonyl)piperidin-4-yl)-1H-pyrazolo[3,4-b]pyridine-4-carboxamide] | 300 to 1000
Cc1cc(C)c(CNC(=O)c2cc(C3=CCN(C(=O)C4CCCNC4)CC3)nc3c2cnn3C(C)C)c(=O)[nH]1 (stereo not drawn) [Compound B-28, N-((4,6-dimethyl-2-oxo-1,2-dihydropyridin-3-yl)methyl)-1-isopropyl-6-(1-(piperidine-3-carbonyl)-1,2,3,6-tetrahydropyridin-4-yl)-1H-pyrazolo[3,4-b]pyridine-4-carboxamide] | < 300
Cc1cc(C)c(CNC(=O)c2cc(C3CCN(C4CCNCC4)CC3)nc3c2cnn3C(C)C)c(=O)[nH]1 [Compound B-29, 6-([1,4′-bipiperidin]-4-yl)-N-((4,6-dimethyl-2-oxo-1,2-dihydropyridin-3-yl)methyl)-1-isopropyl-1H-pyrazolo[3,4-b]pyridine-4-carboxamide] | < 300
Cc1cc(C)c(CNC(=O)c2cc(C3=CCN(C(=O)C4CNC4)CC3)nc3c2cnn3C(C)C)c(=O)[nH]1 [Compound B-30, 6-(1-(azetidine-3-carbonyl)-1,2,3,6-tetrahydropyridin-4-yl)-N-((4,6-dimethyl-2-oxo-1,2-dihydropyridin-3-yl)methyl)-1-isopropyl-1H-pyrazolo[3,4-b]pyridine-4-carboxamide] | < 300
Cc1cc(C)c(CNC(=O)c2cc(C3=CCN(C(=O)C4CCN(C)C4)CC3)nc3c2cnn3C(C)C)c(=O)[nH]1 (stereo not drawn) [Compound B-31, N-((4,6-dimethyl-2-oxo-1,2-dihydropyridin-3-yl)methyl)-1-isopropyl-6-(1-(1-methylpyrrolidine-3-carbonyl)-1,2,3,6-tetrahydropyridin-4-yl)-1H-pyrazolo[3,4-b]pyridine-4-carboxamide] | < 300
Cc1cc(C)c(CNC(=O)c2cc(C3=CCN(C(=O)C4CCCN(C)C4)CC3)nc3c2cnn3C(C)C)c(=O)[nH]1 (stereo not drawn) [Compound B-32, N-((4,6-dimethyl-2-oxo-1,2-dihydropyridin-3-yl)methyl)-1-isopropyl-6-(1-(1-methylpiperidine-3-carbonyl)-1,2,3,6-tetrahydropyridin-4-yl)-1H-pyrazolo[3,4-b]pyridine-4-carboxamide] | < 300
Cc1cc(C)c(CNC(=O)c2cc(C3=CCN(C4CCN(CCS(C)(=O)=O)CC4)CC3)nc3c2cnn3C(C)C)c(=O)[nH]1 [Compound B-33, N-((4,6-dimethyl-2-oxo-1,2-dihydropyridin-3-yl)methyl)-1-isopropyl-6-(1-(1-(2-(methylsulfonyl)ethyl)piperidin-4-yl)-1,2,3,6-tetrahydropyridin-4-yl)-1H-pyrazolo[3,4-b]pyridine-4-carboxamide] | < 300
Cc1cc(C)c(CNC(=O)c2cc(C3=CCN(C(=O)C4CCN(C)CC4)CC3)nc3c2cnn3C(C)C)c(=O)[nH]1 [Compound B-34, N-((4,6-dimethyl-2-oxo-1,2-dihydropyridin-3-yl)methyl)-1-isopropyl-6-(1-(1-methylpiperidine-4-carbonyl)-1,2,3,6-tetrahydropyridin-4-yl)-1H-pyrazolo[3,4-b]pyridine-4-carboxamide] | < 300
Cc1cc(C)c(CNC(=O)c2cc(C3CCN(C4CCN(S(C)(=O)=O)CC4)CC3)nc3c2cnn3C(C)C)c(=O)[nH]1 [Compound B-35, N-((4,6-dimethyl-2-oxo-1,2-dihydropyridin-3-yl)methyl)-1-isopropyl-6-(1′-(methylsulfonyl)-[1,4′-bipiperidin]-4-yl)-1H-pyrazolo[3,4-b]pyridine-4-carboxamide] | < 300
Cc1cc(C)c(CNC(=O)c2cc(C3=CC(C)(C)NC(C)(C)C3)nc3c2cnn3C(C)C)c(=O)[nH]1 [Compound B-36] | 300 to 1000
Cc1cc(C)c(CNC(=O)c2cc(C3=CCN(C4CCNCC4)CC3)nc3c2cnn3C(C)C)c(=O)[nH]1 [Compound B-38] | 300 to 1000
CNCC(=O)N1CC=C(c2cc(C(=O)NCc3c(C)cc(C)[nH]c3=O)c3cnn(C(C)C)c3n2)CC1 [Compound B-39] | 300 to 1000
Cc1cc(C)c(CNC(=O)c2cc(C3=CCN(C4CCN(S(C)(=O)=O)CC4)CC3)nc3c2cnn3C(C)C)c(=O)[nH]1 [Compound B-40] | 300 to 1000
Cc1cc(C)c(CNC(=O)c2cc(N3CCC(N4CCNCC4)CC3)nc3c2cnn3C(C)C)c(=O)[nH]1 [Compound B-44] | 300 to 1000
Cc1cc(C)c(CNC(=O)c2cc(C3=CCN(C(=O)[C@H](C)N)CC3)nc3c2cnn3C(C)C)c(=O)[nH]1 [Compound B-46] | 300 to 1000
Cc1cc(C)c(CNC(=O)c2cc(C3CC(C)(C)NC(C)(C)C3)nc3c2cnn3C2COC2)c(=O)[nH]1 [Compound B-47] | 300 to 1000
Cc1cc(C)c(CNC(=O)c2cc(N3CCC(C4CCNCC4)CC3)nc3c2cnn3C(C)C)c(=O)[nH]1 [Compound B-48] | 300 to 1000
Cc1cc(C)c(CNC(=O)c2cc(C3=CCN(C(=O)CCN)CC3)nc3c2cnn3C(C)C)c(=O)[nH]1 [Compound B-49] | 300 to 1000
Cc1cc(C)c(CNC(=O)c2cc(C3=CCN(C(=O)CN(C)C)CC3)nc3c2cnn3C(C)C)c(=O)[nH]1 [Compound B-53] | 300 to 1000

From US9637472B2, “Substituted 6,5-fused bicyclic heteroaryl compounds” (Epizyme, Inc., priority 2011, dated 2017)
